# Data taken from ChEMBL document CHEMBL3044925, “Synthesis of piperazino and morpholino derivatives of aryloxypropane with potential analgesic and possible antimigraine activities” (Med Chem Res, 2011).
# Experiments:
# [1] = test system: Mus musculus; assay: Neurotoxicity against Mus musculus MFI (mouse) assessed as muscle twitching at 90 mg/kg, ip; type: toxicity, organism-based, Muscle tissue; parameters: dose 90 mg/kg, route intraperitoneal; settings: in vivo
# [2] = test system: Mus musculus; assay: Neurotoxicity against Mus musculus MFI (mouse) assessed as epilepsy at 90 mg/kg, ip; type: toxicity, organism-based; parameters: dose 90 mg/kg, route intraperitoneal; settings: in vivo
# [3] = test system: Mus musculus; assay: Neurotoxicity against Mus musculus MFI (mouse) assessed as irritability at 90 mg/kg, ip; type: toxicity, organism-based; parameters: dose 90 mg/kg, route intraperitoneal; settings: in vivo
# [4] = test system: Mus musculus; assay: Neurotoxicity against Mus musculus MFI (mouse) assessed as effect on respiration at 90 mg/kg, ip; type: toxicity, organism-based; parameters: dose 90 mg/kg, route intraperitoneal; settings: in vivo
# [5] = test system: Mus musculus; assay: Neurotoxicity against Mus musculus MFI (mouse) assessed as skeletal muscle incoordination at 90 mg/kg, ip; type: toxicity, organism-based, Muscle tissue; parameters: dose 90 mg/kg, route intraperitoneal; settings: in vivo
# [6] = test system: Mus musculus; assay: […] activity in Mus musculus MFI (mouse) assessed as inhibition of PBQ-induced writhing at 90 mg/kg, ip administered 1.5 hr prior to PBQ-challenge measured after 10 min relative to aspirin; type: functional; settings: route intraperitoneal
# [7] = test system: Mus musculus; assay: Neurotoxicity against Mus musculus MFI (mouse) assessed as tremors at 90 mg/kg, ip; type: toxicity, organism-based; parameters: dose 90 mg/kg, route intraperitoneal; settings: in vivo
# [8] = test system: Mus musculus; assay: Neurotoxicity against Mus musculus MFI (mouse) assessed as excitation at 90 mg/kg, ip; type: toxicity, organism-based; parameters: dose 90 mg/kg, route intraperitoneal; settings: in vivo
# [9] = test system: Mus musculus; assay: Neurotoxicity against Mus musculus MFI (mouse) assessed as eye protrusion at 90 mg/kg, ip; type: toxicity, organism-based; parameters: dose 90 mg/kg, route intraperitoneal; settings: in vivo
# [10] = test system: Mus musculus; assay: Neurotoxicity against Mus musculus MFI (mouse) assessed as hair erection at 90 mg/kg, ip; type: toxicity, organism-based; parameters: dose 90 mg/kg, route intraperitoneal; settings: in vivo
# [11] = test system: Mus musculus; assay: Neurotoxicity against Mus musculus MFI (mouse) assessed as tail erection at 90 mg/kg, ip; type: toxicity, organism-based; parameters: dose 90 mg/kg, route intraperitoneal; settings: in vivo
# [12] = test system: Mus musculus; assay: […] activity in ip dosed Mus musculus MFI (mouse) assessed as inhibition of PBQ-induced writhing administered 1.5 hr prior to PBQ-challenge measured after 10 min; type: functional; settings: read-out: MED
# [13] = test system: Mus musculus; assay: Neurotoxicity against Mus musculus MFI (mouse) assessed as irritability at 40 mg/kg, ip; type: toxicity, organism-based; parameters: dose 40 mg/kg, route intraperitoneal; settings: in vivo
# [14] = test system: Mus musculus; assay: […] activity in Mus musculus MFI (mouse) assessed as inhibition of PBQ-induced writhing at 40 mg/kg, ip administered 1.5 hr prior to PBQ-challenge measured after 10 min relative to aspirin; type: functional; settings: route intraperitoneal
# [15] = test system: Mus musculus; assay: Neurotoxicity against Mus musculus MFI (mouse) assessed as epilepsy at 40 mg/kg, ip; type: toxicity, organism-based; parameters: dose 40 mg/kg, route intraperitoneal; settings: in vivo
# [16] = test system: Mus musculus; assay: Neurotoxicity against Mus musculus MFI (mouse) assessed as tremors at 110 mg/kg, ip; type: toxicity, organism-based; parameters: dose 110 mg/kg, route intraperitoneal; settings: in vivo
# [17] = test system: Mus musculus; assay: Neurotoxicity against Mus musculus MFI (mouse) assessed as eye protrusion at 110 mg/kg, ip; type: toxicity, organism-based; parameters: dose 110 mg/kg, route intraperitoneal; settings: in vivo
# [18] = test system: Mus musculus; assay: Neurotoxicity against Mus musculus MFI (mouse) assessed as excitation at 75 mg/kg, ip; type: toxicity, organism-based; parameters: dose 75 mg/kg, route intraperitoneal; settings: in vivo
# [19] = test system: Mus musculus; assay: Neurotoxicity against Mus musculus MFI (mouse) assessed as epilepsy at 75 mg/kg, ip; type: toxicity, organism-based; parameters: dose 75 mg/kg, route intraperitoneal; settings: in vivo
# [20] = test system: Mus musculus; assay: Neurotoxicity against Mus musculus MFI (mouse) assessed as skeletal muscle incoordination at 40 mg/kg, ip; type: toxicity, organism-based, Muscle tissue; parameters: dose 40 mg/kg, route intraperitoneal; settings: in vivo
# [21] = test system: Mus musculus; assay: Neurotoxicity against Mus musculus MFI (mouse) assessed as tail erection at 40 mg/kg, ip; type: toxicity, organism-based; parameters: dose 40 mg/kg, route intraperitoneal; settings: in vivo
# [22] = test system: Mus musculus; assay: Neurotoxicity against Mus musculus MFI (mouse) assessed as excitation at 40 mg/kg, ip; type: toxicity, organism-based; parameters: dose 40 mg/kg, route intraperitoneal; settings: in vivo
# [23] = test system: Mus musculus; assay: Neurotoxicity against Mus musculus MFI (mouse) assessed as eye protrusion at 40 mg/kg, ip; type: toxicity, organism-based; parameters: dose 40 mg/kg, route intraperitoneal; settings: in vivo
# [24] = test system: Mus musculus; assay: Neurotoxicity in ip dosed Mus musculus MFI (mouse); type: toxicity, organism-based; settings: in vivo
# [25] = test system: Mus musculus; assay: […] activity in Mus musculus MFI (mouse) assessed as inhibition of PBQ-induced writhing at 75 mg/kg, ip administered 1.5 hr prior to PBQ-challenge measured after 10 min relative to aspirin; type: functional; settings: route intraperitoneal
# [26] = test system: Mus musculus; assay: Neurotoxicity against Mus musculus MFI (mouse) assessed as skeletal muscle incoordination at 75 mg/kg, ip; type: toxicity, organism-based, Muscle tissue; parameters: dose 75 mg/kg, route intraperitoneal; settings: in vivo
# [27] = test system: Mus musculus; assay: Neurotoxicity against Mus musculus MFI (mouse) assessed as muscle twitching at 75 mg/kg, ip; type: toxicity, organism-based, Muscle tissue; parameters: dose 75 mg/kg, route intraperitoneal; settings: in vivo
# [28] = test system: Mus musculus; assay: Neurotoxicity against Mus musculus MFI (mouse) assessed as effect on respiration at 40 mg/kg, ip; type: toxicity, organism-based; parameters: dose 40 mg/kg, route intraperitoneal; settings: in vivo
# [29] = test system: Mus musculus; assay: Neurotoxicity against Mus musculus MFI (mouse) assessed as eye protrusion at 75 mg/kg, ip; type: toxicity, organism-based; parameters: dose 75 mg/kg, route intraperitoneal; settings: in vivo
# [30] = test system: Mus musculus; assay: Neurotoxicity against Mus musculus MFI (mouse) assessed as effect on respiration at 75 mg/kg, ip; type: toxicity, organism-based; parameters: dose 75 mg/kg, route intraperitoneal; settings: in vivo
# [31] = test system: Mus musculus; assay: Neurotoxicity against Mus musculus MFI (mouse) assessed as tail erection at 75 mg/kg, ip; type: toxicity, organism-based; parameters: dose 75 mg/kg, route intraperitoneal; settings: in vivo
# [32] = test system: Mus musculus; assay: Neurotoxicity against Mus musculus MFI (mouse) assessed as skeletal muscle incoordination at 110 mg/kg, ip; type: toxicity, organism-based, Muscle tissue; parameters: dose 110 mg/kg, route intraperitoneal; settings: in vivo
# [33] = test system: Mus musculus; assay: Neurotoxicity against Mus musculus MFI (mouse) assessed as muscle twitching at 110 mg/kg, ip; type: toxicity, organism-based, Muscle tissue; parameters: dose 110 mg/kg, route intraperitoneal; settings: in vivo
# [34] = test system: Mus musculus; assay: Neurotoxicity against Mus musculus MFI (mouse) assessed as irritability at 75 mg/kg, ip; type: toxicity, organism-based; parameters: dose 75 mg/kg, route intraperitoneal; settings: in vivo
# [35] = test system: Mus musculus; assay: Neurotoxicity against Mus musculus MFI (mouse) assessed as hair erection at 75 mg/kg, ip; type: toxicity, organism-based; parameters: dose 75 mg/kg, route intraperitoneal; settings: in vivo
# [36] = test system: Mus musculus; assay: Neurotoxicity against Mus musculus MFI (mouse) assessed as tremors at 40 mg/kg, ip; type: toxicity, organism-based; parameters: dose 40 mg/kg, route intraperitoneal; settings: in vivo
# [37] = test system: Mus musculus; assay: […] activity in Mus musculus MFI (mouse) assessed as inhibition of PBQ-induced writhing at 110 mg/kg, ip administered 1.5 hr prior to PBQ-challenge measured after 10 min relative to aspirin; type: functional; settings: route intraperitoneal
# [38] = test system: Mus musculus; assay: Neurotoxicity against Mus musculus MFI (mouse) assessed as excitation at 110 mg/kg, ip; type: toxicity, organism-based; parameters: dose 110 mg/kg, route intraperitoneal; settings: in vivo
# [39] = test system: Mus musculus; assay: Neurotoxicity against Mus musculus MFI (mouse) assessed as irritability at 110 mg/kg, ip; type: toxicity, organism-based; parameters: dose 110 mg/kg, route intraperitoneal; settings: in vivo
# [40] = test system: Mus musculus; assay: Neurotoxicity against Mus musculus MFI (mouse) assessed as tremors at 75 mg/kg, ip; type: toxicity, organism-based; parameters: dose 75 mg/kg, route intraperitoneal; settings: in vivo
# [41] = test system: Mus musculus; assay: Neurotoxicity against Mus musculus MFI (mouse) assessed as epilepsy at 110 mg/kg, ip; type: toxicity, organism-based; parameters: dose 110 mg/kg, route intraperitoneal; settings: in vivo
# [42] = test system: Mus musculus; assay: Neurotoxicity against Mus musculus MFI (mouse) assessed as effect on respiration at 110 mg/kg, ip; type: toxicity, organism-based; parameters: dose 110 mg/kg, route intraperitoneal; settings: in vivo
# [43] = test system: Mus musculus; assay: Neurotoxicity against Mus musculus MFI (mouse) assessed as tail erection at 110 mg/kg, ip; type: toxicity, organism-based; parameters: dose 110 mg/kg, route intraperitoneal; settings: in vivo
# [44] = test system: Mus musculus; assay: Neurotoxicity against Mus musculus MFI (mouse) assessed as hair erection at 40 mg/kg, ip; type: toxicity, organism-based; parameters: dose 40 mg/kg, route intraperitoneal; settings: in vivo
# [45] = test system: Mus musculus; assay: Neurotoxicity against Mus musculus MFI (mouse) assessed as muscle twitching at 40 mg/kg, ip; type: toxicity, organism-based, Muscle tissue; parameters: dose 40 mg/kg, route intraperitoneal; settings: in vivo
# [46] = test system: Mus musculus; assay: Neurotoxicity against Mus musculus MFI (mouse) assessed as hair erection at 110 mg/kg, ip; type: toxicity, organism-based; parameters: dose 110 mg/kg, route intraperitoneal; settings: in vivo
compound,measurement,setting,value
CC(CN1CCN(C)CC1)Oc1cccc(Cl)c1Cl.O=C(O)C(=O)O (racemic),Activity,[1],Toxic
same,Activity,[2],Toxic
same,Activity,[3],Toxic
same,Activity,[4],Toxic
same,Activity,[5],Toxic
same,inhibition in vivo at 90 mg/kg,[6],85%
same,Activity,[7],Toxic
same,Activity,[8],Toxic
same,Activity,[9],Toxic
same,Activity,[10],Toxic
same,Activity,[11],Toxic
CC(CN1CCN(C)CC1)Oc1c(Br)cccc1Br.O=C(O)C(=O)O (racemic),minimal effective dose,[12],40 mg/kg
same,Activity,[13],Toxic
same,inhibition in vivo at 40 mg/kg,[14],12.5%
same,Activity,[15],Toxic
same,Activity,[16],Toxic
same,Activity,[17],Toxic
same,Activity,[18],Toxic
same,Activity,[19],Toxic
same,Activity,[20],Toxic
same,Activity,[21],Toxic
same,Activity,[22],Toxic
same,Activity,[23],Toxic
same,MTC,[24],75 mg/kg
same,inhibition in vivo at 75 mg/kg,[25],37.5%
same,Activity,[26],Toxic
same,Activity,[27],Toxic
same,Activity,[28],Toxic
same,Activity,[29],Toxic
same,Activity,[30],Toxic
same,Activity,[31],Toxic
same,Activity,[32],Toxic
same,Activity,[33],Toxic
same,Activity,[34],Toxic
same,Activity,[35],Toxic
same,Activity,[36],Toxic
same,inhibition in vivo at 110 mg/kg,[37],100%
same,Activity,[38],Toxic
same,Activity,[39],Toxic
same,Activity,[40],Toxic
same,Activity,[41],Toxic
same,Activity,[42],Toxic
same,Activity,[43],Toxic
same,Activity,[44],Toxic
same,Activity,[45],Toxic
same,Activity,[46],Toxic
